{"source": "patent US11985974B2", "about": "“Antimicrobial ferulic acid derivatives and uses thereof” (WISCONSIN ALUMNI RESEARCH FOUNDATION, priority 2014, dated 2024)", "key": {"[1]": {"tested_on": "P. sojae (field isolate)", "assay": "Colony growth of P. sojae on plates", "type": "cell-based, Phytophthora sojae", "conditions": "0, 500, 1,000, 1,500 μg/mL, 7 d, P<0.01", "procedure": "(§1) To test inhibition in liquid culture, a dose curve of 0, 125, 250, and 500 μg/mL poacic acid in 100 mL potato dextrose broth (n=3) was used. Cultures of S. sclerotiorum strain 1980 were inoculated with 100 μL homogenized mycelia and grown at 25° C. for 48 h. The mycelia in the liquid media were dried and weighed. The growth inhibition of poacic acid on solid agar cultures (potato dextrose agar) was assessed by generating replicate plates (n=3) containing 0, 125, 250, and 500 μg/mL poacic acid. Plates were inoculated with an actively growing plug of S. sclerotiorum and grown at 25° C. The mycelial radial growth after 48 h was measured Inhibition of S. sclerotiorum in planta was tested by inoculating detached soybean leaves of the commercial variety Williams 82 with an agar plug of actively growing S. sclerotiorum mycelia. Leaves were treated one time before inoculation with either an aerosol spray of water with DMSO (control) or a 500 μg/mL solution of poacic acid. Leaves were incubated in a moist environment, and lesion development was monitored up to 120 h postinoculation. […] The growth inhibition of poacic acid was assessed at 0, 500, 1,000, and 1,500 μg/mL in replicate plates (n=3). […] Colony diameter was monitored for each treatment in a time-course experiment. […]"}, "[2]": {"tested_on": "Alternaria solani (field isolate)", "assay": "Colony growth of A. solani on plates", "type": "cell-based", "conditions": "0, 500, 1,000, 1,500 μg/mL, dose-dependent", "procedure": "as §1"}, "[3]": {"tested_on": "T1, β-1,3-glucan synthase", "T1 construct": "membrane fraction was prepared from S. cerevisiae BY4741", "assay": "β-1,3-glucan synthase activity in the membrane fraction", "type": "biochemical, S. cerevisiae BY4741", "conditions": "25° C., 30 min", "procedure": "After the membrane fraction was prepared from S. cerevisiae BY4741 as described previously (n=3) (Abe et al. 2001), β-1,3-glucan synthase activity was measured as described previously (n=3) (Inoue et al. 1995) with slight modification. Briefly, 20 μL membrane fraction (˜70 μg total protein) was added to a reaction mixture (final volume of 100 μL) containing 50 mM Tris·HCl, pH 7.5, 10 mM potassium fluoride, 1 mM EDTA, 0.2 mM UDP-Glc (with 89 Bq UDP-[Glucose-14C]; NEC403; PerkinElmer), and different concentrations of poacic acid (1.25, 2.5, 5, 10, 20, 40, 80, 160, or 320 μg/mL). The reaction mixture was incubated at 25° C. for 30 min and stopped by the addition of ethanol. To trap reaction product (β-1,3-glucan polymer), the reaction mixture was filtered through the membrane filter (mixed cellulose esters; 0.2 μm in pore size; ADVANTEC), washed one time with 2 mL distilled water, and dried at room temperature. After addition of scintillation mixture (Econofluor-2; PerkinElmer), radioactivity was measured by a scintillation counter (LSC-6100; Aloka) Inhibition curves and IC50 values were determined using R software (ver. 3.0.1) by sigmoidal curve fitting with the glm function."}, "[4]": {"tested_on": "yeast deletion collection", "assay": "Chemical genomic analysis of yeast deletion collection", "type": "cell-based, Saccharomyces cerevisiae", "procedure": "Chemical genomic analysis of poacic acid was performed as described previously (Parsons et al. 2006, Fung et al. 2014). The tested yeast deletion collection had ˜4,000 strains using the genetic background described by Andrusiak (Andrusiak 2012). The optimal inhibitory concentration of poacic acid for chemical genomic profiling [70-80% growth vs. solvent control in yeast extract-peptone-galactose medium after 24 h of growth] was determined using an eight-point dose curve. A concentration of 88 μg/mL inhibited growth within this range; 200-μL cultures of the pooled deletion collection of S. cerevisiae were grown with 88 μg/mL poacic acid (n=3) or a DMSO control in triplicate for 48 h at 30° C. Genomic DNA was extracted using the Epicentre MasterPure Yeast DNA Purification Kit. Mutant-specific molecular barcodes were amplified with specially designed multiplex primers (Smith et al. 2009). The barcodes were sequenced using an Illumina MiSeq. Replicates of each condition, poacic acid (n=3) or DMSO (n=2), were sequenced. The barcode counts for each yeast deletion mutant in the presence of poacic acid were compared to the DMSO control conditions to determine sensitivity or resistance of individual strains (the chemical genetic interaction score) (Parsons et al. 2006). To determine a P value for each top sensitive and resistant mutant, we used the EdgeR package (Robinson et al. 2014, Robinson et al. 2010). A Bonferroni-corrected hypergeometric distribution test was used to search for significant enrichment of GO terms among the top 10 sensitive and resistant deletion mutants (Boyle et al. 2004). To understand the pathways that were most affected by poacic acid, we developed a protein complex/pathway score based on the summation of the z scores for each complex/pathway (Pathway z score). Correlation of the chemical genomic profile of poacic acid with the yeast genetic interaction network was performed as previously described (Costanzo et al. 2010).\nFor each complex, the chemical genetic interaction score of the genes in the complex with the compound was summed. To determine significance, the expectations for such a sum for random sets of genes of equal size were calculated. The random sets of equal size were expected to have means equal to the background mean and SDs equal to the background SD/sqrt(n). With this information, a z score (number of SDs from the expected mean) for each complex or pathway can be computed: Pathway z-score=(Σ−μ)/(σ×sqrt(n)), where Σ=sum of the chemical genetic interaction scores of genes in the complex, μ=mean of the chemical genetic interaction scores of the compounds with all genes studies, σ=SD of chemical genetic interaction scores of the compounds with all genes in the study, and n=size of the complex. Multivariate Morphological Analysis"}, "[5]": {"tested_on": "S. sclerotiorum", "assay": "Inhibition of S. sclerotiorum in planta on detached soybean leaves", "type": "in vivo, Sclerotinia sclerotiorum on soybean (Williams 82)", "conditions": "single aerosol treatment 500 μg/mL before inoculation, up to 120 h postinoculation", "procedure": "as §1"}}, "data": [{"smiles": "COc1cc(/C=C/c2cc(/C=C/C(=O)O)cc(OC)c2O)ccc1O", "note": "[poacic acid, (E)-4-Hydroxy-3-{2-[(E)-4-hydroxy-3-methoxystyryl]}-5-methoxycinnamic acid]", "values": [{"measurement": "colony growth", "setting": "[1]", "result": "significantly reduces colony growth"}, {"measurement": "colony growth on plates", "setting": "[2]", "result": "significantly (P<0.01) inhibited"}, {"measurement": "IC50 (β-1,3-glucan synthase activity in vitro)", "setting": "[3]", "result": 31, "unit": "µg/mL"}, {"measurement": "growth vs. solvent control", "setting": "[4]; 88 μg/mL, yeast extract-peptone-galactose medium, 24 h", "result": "70-80%"}, {"measurement": "Z Score", "setting": "[4]; ACK1 deletion mutant, sensitive", "result": "ACK1 −9.09 1.39E"}, {"measurement": "Z Score", "setting": "[4]; ALG6 deletion mutant, sensitive", "result": "ALG6 −8.30 1.82E"}, {"measurement": "Z Score", "setting": "[4]; BCK1 deletion mutant, sensitive", "result": "BCK1 −12.91 2.58E"}, {"measurement": "Z Score", "setting": "[4]; CSG2 deletion mutant, resistant", "result": "CSG2 5.89 1.57E"}, {"measurement": "Z Score", "setting": "[4]; CWH43 deletion mutant, sensitive", "result": "CWH43 −10.99 7.98E"}, {"measurement": "Z Score", "setting": "[4]; DFG5 deletion mutant, resistant", "result": "DFG5 5.51 1.34E"}, {"measurement": "Z Score", "setting": "[4]; DSF2 deletion mutant, resistant", "result": "DSF2 5.32 6.68E"}, {"measurement": "Z Score", "setting": "[4]; EMC4 deletion mutant, sensitive", "result": "EMC4 −7.92 1.90E"}, {"measurement": "Z Score", "setting": "[4]; ERG2 deletion mutant, sensitive", "result": "ERG2 −7.80 4.76E"}, {"measurement": "Z Score", "setting": "[4]; FYV8 deletion mutant, sensitive", "result": "FYV8 −9.11 1.11E"}, {"measurement": "Z Score", "setting": "[4]; LCL1 deletion mutant, resistant", "result": "LCL1 5.79 4.51E"}, {"measurement": "Z Score", "setting": "[4]; NBP2 deletion mutant, resistant", "result": "NBP2 5.43 1.57E"}, {"measurement": "Z Score", "setting": "[4]; NUP170 deletion mutant, resistant", "result": "NUP170 5.33 2.79E"}, {"measurement": "Z Score", "setting": "[4]; PIB2 deletion mutant, resistant", "result": "PIB2 4.96 2.79E"}, {"measurement": "Pathway z score", "setting": "[4]; PKC pathway (most sensitive pathway), 88 μg/mL", "result": "−7.85"}, {"measurement": "Z Score", "setting": "[4]; RGD1 deletion mutant, sensitive", "result": "RGD1 −10.16 1.21E"}, {"measurement": "Z Score", "setting": "[4]; ROM2 deletion mutant, sensitive", "result": "ROM2 −9.47 8.88E"}, {"measurement": "Z Score", "setting": "[4]; RPL21B deletion mutant, resistant", "result": "RPL21B 4.81 1.11E"}, {"measurement": "Z Score", "setting": "[4]; RTS1 deletion mutant, resistant", "result": "RTS1 5.39 6.26E"}, {"measurement": "Z Score", "setting": "[4]; SNG1 deletion mutant, sensitive", "result": "SNG1 −7.91 8.96E"}, {"measurement": "Z Score", "setting": "[4]; SUR1 deletion mutant, resistant", "result": "SUR1 5.21 5.34E"}, {"measurement": "lesion development on detached soybean leaves", "setting": "[5]", "result": "markedly reduced lesion development"}]}]}
